From US11951134B2, “Cationic platelet lysate compositions and related methods” (North Carolina State University, priority 2019, dated 2024)

Columns and labels:
[1] = test system: all isolates used in this study; experiment: Antimicrobial susceptibility by microbroth dilution; type: cell-based
Description: The laboratory strain of Staphylococcus aureus, ATCC 25923, was used to initially screen the different PRP formulations. Significant findings were then validated using clinical isolates derived from cases of equine septic arthritis collected by the University of Pennsylvania School of Veterinary Medicine New Bolton Center Clinical Microbiology Laboratory and processed in accordance with their Standard Operating Procedures. In vitro antimicrobial susceptibility testing and microbial identification was performed using the ARIS Sensititre™ system, using the equine (EQUIN1F) antimicrobial susceptibility panel for veterinary organisms. Bacteria were saved in frozen stocks on glycerol at −80° C. Blood agar plates were streaked from frozen stocks and used for in vitro experiments for a maximum of 1 month. […]
Synovial fluid pooled from three horses (n=3) was infected at 1×10^5 CFU/mL for Staphylococcus aureus (ATCC 25923) or for each clinical isolate (Staphylococcus aureus, Streptococcus zooepidemicus, Pseudomonas aeruginosa, and Escherichia coli) and incubated for 2 hours at 37° C. in a microaerophilic chamber on a shaker at 120 rpm to allow for […] formation. […] Bacterial load was measured using serial dilutions and plate counting of colony forming units. […]

[2] = test system: S. aureus (ATCC 25923) infected tarsocrural joint; experiment: Equine S. aureus infectious arthritis model (BIO-PLY 5 mL + 500 mg amikacin vs 500 mg amikacin + saline, intra-articular daily for 7 days); type: in vivo, horse; conditions: end-term (day 24; legend b39: day 23-24); BIO-PLY + amikacin group vs amikacin alone group, n=6 each
Description: Subsequently, the in vitro findings were translated into an in vivo equine model of S. aureus-induced infectious arthritis. Using this model, it was hypothesized that the combination of BIO-PLY and amikacin will decrease bacterial burden and improve outcome parameters in an equine S. aureus infectious arthritis model compared to horses treated with amikacin alone. A highly concentrated (>50 fold), pooled PRP-L was generated from 8 healthy donor horses and processed to have the anionic fraction, including fibrinogen, removed and passed through a 10 kDa molecular weight cutoff filter to remove proteins […] termed BIO-PLY as stated above (IACUC protocol #16-189 of NC State University, Raleigh, N.C.). […]
All horses received systemic antimicrobials (potassium penicillin and gentamicin) for 10 days post-infection as well as a tapering course of phenylbutazone for the duration of the study. Physical examinations were performed daily and pain scores based on lameness, hock swelling, distal limb swelling, pain to palpation, and presence of heat were calculated at days 0-7, 14 and 21. […] Synovial fluid was collected on day 0-7 and assessed for total protein (TP), total nucleated cell count (TNCC), cellular differential, and bacterial load determination, as well as biomarker analysis (EMD Millipore MILLIPLEX MAP Equine Cytokine/Chemokine Magnetic Bead Panel). […]

NCC[C@H](O)C(=O)N[C@@H]1C[C@H](N)[C@@H](O[C@H]2O[C@H](CN)[C@@H](O)[C@H](O)[C@H]2O)[C@H](O)[C@H]1O[C@H]1O[C@H](CO)[C@@H](O)[C@H](N)[C@H]1O [amikacin]
susceptibility of isolates to amikacin [1]: susceptible
bacteria within the synovial tissue at end-term [2]: 80.95±58.77 CFU/g tissue
